Literature values in patent publication US8057811B2 (Douglas Pharmaceuticals Limited, priority 2003, dated 2011).

solubility in water: practically insoluble in water
SMILES: CN1CCN(C2=Nc3cc(Cl)ccc3Nc3ccccc32)CC1 [Clozapine]
